Tests used:
EcRB1/USP = molecular target: T1, EcRB1/USP (Drosophila melanogaster, UniProt P34021); assay: EcRB1 isoform with USP (VP16CfUSP), (EcRE)5-ΔMTV-LUC in CHO cells; format: cell-based
T1 construct: The plasmid encodes a version of EcRB1 that includes 878 amino acids, and deletes the F domain; expressed in transfected cells; host or cells: CHO
T1 sequence (P34021 1-878): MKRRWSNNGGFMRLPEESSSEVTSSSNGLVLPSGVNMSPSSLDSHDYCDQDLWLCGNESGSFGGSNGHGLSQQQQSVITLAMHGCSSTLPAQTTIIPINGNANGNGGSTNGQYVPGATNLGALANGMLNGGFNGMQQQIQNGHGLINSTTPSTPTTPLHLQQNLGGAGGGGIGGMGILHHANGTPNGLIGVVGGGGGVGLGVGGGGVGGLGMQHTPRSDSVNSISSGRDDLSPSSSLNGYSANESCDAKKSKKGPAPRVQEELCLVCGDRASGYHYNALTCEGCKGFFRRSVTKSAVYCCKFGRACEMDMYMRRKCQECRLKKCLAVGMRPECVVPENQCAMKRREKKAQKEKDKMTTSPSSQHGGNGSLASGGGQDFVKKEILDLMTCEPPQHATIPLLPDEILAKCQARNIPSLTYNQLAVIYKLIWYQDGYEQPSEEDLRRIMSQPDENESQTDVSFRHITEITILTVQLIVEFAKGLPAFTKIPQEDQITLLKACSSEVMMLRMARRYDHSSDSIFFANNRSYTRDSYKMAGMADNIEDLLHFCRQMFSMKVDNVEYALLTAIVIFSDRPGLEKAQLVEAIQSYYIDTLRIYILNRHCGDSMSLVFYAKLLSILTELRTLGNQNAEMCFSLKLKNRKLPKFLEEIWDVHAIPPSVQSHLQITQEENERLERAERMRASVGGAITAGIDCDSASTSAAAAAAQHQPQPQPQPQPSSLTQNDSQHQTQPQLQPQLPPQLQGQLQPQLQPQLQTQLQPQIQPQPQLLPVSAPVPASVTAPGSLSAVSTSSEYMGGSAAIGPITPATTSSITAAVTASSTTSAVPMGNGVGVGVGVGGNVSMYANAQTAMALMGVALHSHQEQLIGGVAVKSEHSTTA
T1 sequence (O76202 192-472 partner): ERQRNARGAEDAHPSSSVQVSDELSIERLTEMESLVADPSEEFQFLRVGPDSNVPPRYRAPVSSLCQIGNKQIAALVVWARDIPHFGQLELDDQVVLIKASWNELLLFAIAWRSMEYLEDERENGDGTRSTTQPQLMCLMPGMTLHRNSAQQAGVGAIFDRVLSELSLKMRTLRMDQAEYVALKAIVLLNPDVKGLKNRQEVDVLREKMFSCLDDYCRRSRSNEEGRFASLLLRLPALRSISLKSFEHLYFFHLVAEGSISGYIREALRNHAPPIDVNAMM
Description: (§1) These experiments employed a mammalian cell culture system using Chinese hamster ovary cells (CHO) to evaluate the transcriptional function of Drosophila melanogaster EcR and USP using methods described previously (U.S. Patent Application Publication No: 2005/0049230; Henrich et al, 2003). Cells were seeded in 6-well polypropylene culture plates (Falcon) with 10^5 cells per well on the day prior to transfection. Transfection was subsequently performed using either calcium phosphate (Kitareewan et al., 1996, Mol. Biol. Cell, 7:1153-1196) or a GenePorter reagent (Gene Therapy Systems, Inc; San Diego, Calif.) following manufacturer's protocols. Each well received 1.25 μg of (EcRE)5-ΔMTV-CAT (five copies of the hsp27 EcRE inserted into an mouse mammary tumor virus (MTV) promoter upstream of the chloramphenicol acetyltransferase (CAT) gene) or (EcRE)5-ΔMTV-LUC (the same promoter attached to firefly luciferase), 1.25 μg of pCH111 (SV40 early promoter linked to the β-galactosidase gene) to normalize CAT activity, and 0.25 μg of each expression plasmid (EcR, FXR, RXR, USP) that was tested. The cells were incubated with plasmid DNA for seven hours and then washed with 1×PBS. Muristerone A (murA; Alexis Biochemicals) or 20-hydroxyecdysone (20E; Sigma) dissolved in ethanol to a concentration of 10 mM was diluted as necessary to the final assay concentration (FAC) in 2 ml of fresh incubation medium that was then applied to the cells. Similarly, JHIII (Sigma) was dissolved in dimethyl sulfoxide (DMSO) to a concentration of […] and diluted into the incubation medium to its final assay concentration (20, 40, 80, 160 μM). […] A corresponding volume of ethanol and DMSO were added to control cells for all experiments. For all experiments, the cells were allowed to incubate with the medium for 24 hours before collection and cell lysates were prepared by described methods (Kitareewan et al., 1996). Both β-galactosidase and CAT reporter activity were measured based on previously used methods (Kitareewan et al, 1996). Luciferase assays using luciferrin followed the specifications of the manufacturer.
Transcriptional activity, measured as ^14C-chloramphenicol counts (for measuring CAT activity) or relative luciferase activity (RLU) was quantified for each cell lysate. The counts were then normalized by adjusting for differences in β-galactosidase activity, since β-galactosidase expression is controlled by a constitutive promoter and provides an estimate of cell mass. Data were normalized as fold-induction based on differences in reporter gene activity between hormonally treated and control cells.

FXR and USP = molecular target: T2, FXR and USP (Rattus norvegicus, UniProt Q62735); assay: FXR with USP, reporter in CHO cells; format: cell-based
T2 construct: expressed in transfected cells; host or cells: CHO
T2 sequence (Q62735 1-469): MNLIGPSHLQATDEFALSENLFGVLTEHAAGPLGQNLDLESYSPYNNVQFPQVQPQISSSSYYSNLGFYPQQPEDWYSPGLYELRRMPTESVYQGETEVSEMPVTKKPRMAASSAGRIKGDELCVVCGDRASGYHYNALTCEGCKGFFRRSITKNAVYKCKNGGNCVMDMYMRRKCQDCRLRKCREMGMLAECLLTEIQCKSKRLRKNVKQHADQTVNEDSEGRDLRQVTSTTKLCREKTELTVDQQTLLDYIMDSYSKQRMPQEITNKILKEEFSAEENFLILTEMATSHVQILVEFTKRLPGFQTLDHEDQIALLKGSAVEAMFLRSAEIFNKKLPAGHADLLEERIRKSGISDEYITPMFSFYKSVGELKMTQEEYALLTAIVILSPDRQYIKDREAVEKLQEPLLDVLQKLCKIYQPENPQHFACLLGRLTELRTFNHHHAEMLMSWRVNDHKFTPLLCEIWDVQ
Description: as §1, with “Luciferase assays using luciferrin followed the specifications of the manufacturer.” left out

VP16dEcR/USP = molecular target: T3, VP16dEcR/USP (Drosophila melanogaster, UniProt P34021); assay: VP16dEcR with USP (VP16CfUSP), reporter in CHO cells; format: cell-based
T3 construct: expressed in transfected cells; host or cells: CHO
Description: (§2) These experiments employed a mammalian cell culture system using Chinese hamster ovary cells (CHO) to evaluate the transcriptional function of Drosophila melanogaster EcR and USP using methods described previously (U.S. Patent Application Publication No: 2005/0049230; Henrich et al, 2003). Cells were seeded in 6-well polypropylene culture plates (Falcon) with 10^5 cells per well on the day prior to transfection. Transfection was subsequently performed using either calcium phosphate (Kitareewan et al., 1996, Mol. Biol. Cell, 7:1153-1196) or a GenePorter reagent (Gene Therapy Systems, Inc; San Diego, Calif.) following manufacturer's protocols. Each well received 1.25 μg of (EcRE)5-ΔMTV-CAT (five copies of the hsp27 EcRE inserted into an mouse mammary tumor virus (MTV) promoter upstream of the chloramphenicol acetyltransferase (CAT) gene) or (EcRE)5-ΔMTV-LUC (the same promoter attached to firefly luciferase), 1.25 μg of pCH111 (SV40 early promoter linked to the β-galactosidase gene) to normalize CAT activity, and 0.25 μg of each expression plasmid (EcR, FXR, RXR, USP) that was tested. […] Both β-galactosidase and CAT reporter activity were measured based on previously used methods (Kitareewan et al, 1996). […]
(§3) Transcriptional activity, measured as ^14C-chloramphenicol counts (for measuring CAT activity) or relative luciferase activity (RLU) was quantified for each cell lysate. […]

EcRB1/RXR = molecular target: T4, EcRB1/RXR (Drosophila melanogaster, UniProt P34021); assay: EcRB1 isoform with RXR, reporter in CHO cells; format: cell-based
T4 construct: The plasmid encodes a version of EcRB1 that includes 878 amino acids, and deletes the F domain; expressed in transfected cells; host or cells: CHO
Description: as §2, §3

insect = conditions: from Schneiderman and Gilbert, Science 143; cited from earlier work

CC(C)(O)CC[C@@H](O)[C@](C)(O)[C@H]1CC[C@@]2(O)C3=CC(=O)[C@@H]4C[C@@H](O)[C@@H](O)C[C@]4(C)[C@H]3CC[C@]12C [20E, 20-hydroxyecdysone]
transcriptional response to 20E (EcRB1/USP; EcRB1 + VP16CfUSP, 10 μM 20E): consistent and discernible transcriptional response | 20E (inducibility) (EcRB1/USP; EcRB1/USP, 10 μM 20E): + ((+) designates a change in transcriptional level that exceeds 2.5-fold) | elevation of FXR-mediated activity by ecdysteroid added with JHIII (FXR and USP): no elevation

COC(=O)/C=C(\C)CC/C=C(\C)CC[C@H]1OC1(C)C [JHIII, juvenile hormone III]
potentiation of murA response by JHIII (EcRB1/USP; EcRB1 + VP16CfUSP, 80 μM JHIII with 0.1 μM murA): potentiated | MurA + JHIII (JHIII potentiation) (EcRB1/USP; EcRB1/USP, 0.1 μM murA + 80 μM JHIII): + ((+) indicates observed potentiation that exceeds 2-fold above the levels observed with ecdysteroid alone) | MurA + JHIII (JHIII potentiation) (VP16dEcR/USP; 0.1 μM murA + 80 μM JHIII): + ((+) indicates observed potentiation that exceeds 2-fold above the levels observed with ecdysteroid alone) | MurA + JHIII (JHIII potentiation) (EcRB1/RXR; 0.1 μM murA + 80 μM JHIII): + ((+) indicates observed potentiation that exceeds 2-fold above the levels observed with ecdysteroid alone) | response of FXR and USP to JHIII (FXR and USP; CHO cells): low level response

CC(C)=CCCC(C)=CCCC(C)=CC(=O)O [farnesoic acid]
JH ACTIVITY (units/g) (insect): 7.8 units/g

CC(C)CC[C@@H](O)[C@](C)(O)[C@H]1CC[C@@]2(O)C3=CC(=O)[C@]4(O)C[C@@H](O)[C@@H](O)C[C@]4(C)[C@H]3[C@H](O)C[C@]12C [murA, muristerone A]
induction by murA (EcRB1/USP; EcRB1 + VP16CfUSP, 1 μM murA): 30-40 fold | MurA (inducibility) (EcRB1/USP; EcRB1/USP, 0.1 μM murA): + ((+) designates a change in transcriptional level that exceeds 2.5-fold) | MurA (inducibility) (VP16dEcR/USP; 0.1 μM murA): + ((+) designates a change in transcriptional level that exceeds 2.5-fold) | MurA (inducibility) (EcRB1/RXR; 0.1 μM murA): + ((+) designates a change in transcriptional level that exceeds 2.5-fold) | elevation of FXR-mediated activity by ecdysteroid added with JHIII (FXR and USP): no elevation

— patent US8637237B2, “Methods, compositions, and systems for the identification of species-specific or developmental stage-specific insecticides” (The University of North Carolina at Greensboro, priority 2003, dated 2014)
